In patent publication EP1683521A1, “Peptide deformylase inhibitors, their use, and pharmaceutical compositions containing the same” (CENTRE NATIONAL DE LA RECHERCHE SCIENTIFIQUE (CNRS), priority 2005, dated 2006):
Converted amounts (≈) assume the structure as drawn. Like-named read-outs stand apart in the source and are kept apart here.

Experiments:
[1] = biological target: T1, EcPDF (Escherichia coli, UniProt P0A6K3); test: NMR titrations on peptide deformylase; format: binding; conditions: probed by NMR titrations
T1 construct: made in house
T1 sequence (P0A6K3 1-148): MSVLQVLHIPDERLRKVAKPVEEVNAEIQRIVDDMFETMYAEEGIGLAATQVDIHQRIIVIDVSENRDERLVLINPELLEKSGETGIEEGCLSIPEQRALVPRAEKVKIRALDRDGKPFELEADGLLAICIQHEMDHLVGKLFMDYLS

[2] = biological target: T2, BsPDF2 (Geobacillus stearothermophilus, UniProt O31410); test: PDF inhibition assay coupled to formate dehydrogenase (in vitro assay); format: biochemical, Bacillus stearothermophilus
T2 construct: made in house
T2 sequence (O31410 whole entry): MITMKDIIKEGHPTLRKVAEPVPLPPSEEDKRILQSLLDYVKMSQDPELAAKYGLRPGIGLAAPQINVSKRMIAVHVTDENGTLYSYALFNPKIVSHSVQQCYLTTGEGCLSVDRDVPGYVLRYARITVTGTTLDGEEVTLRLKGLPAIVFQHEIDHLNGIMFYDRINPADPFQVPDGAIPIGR

[3] = tested on: Arabidopsis thaliana (ecotype WS4); test: Growth inhibition of Arabidopsis thaliana; format: in vivo
[4] = tested on: B. subtilis-168; test: B. subtilis MIC
[5] = biological target: T3, EcPDF1B (Escherichia coli, UniProt P0A6K3); test: PDF inhibition assay coupled to formate dehydrogenase (in vitro assay); format: biochemical
T3 construct: made in house
T3 sequence (P0A6K3 whole entry): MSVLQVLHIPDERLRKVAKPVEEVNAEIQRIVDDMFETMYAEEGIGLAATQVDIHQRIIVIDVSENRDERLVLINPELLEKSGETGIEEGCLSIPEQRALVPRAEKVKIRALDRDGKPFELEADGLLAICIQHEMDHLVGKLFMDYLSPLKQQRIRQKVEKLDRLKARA

[6] = tested on: B. subtilis-MHY101; test: B. subtilis MIC; conditions: Bacillus subtilis
[7] = tested on: B. subtilis-M03482; test: B. subtilis MIC; conditions: Bacillus subtilis
[8] = tested on: B. subtilis-MHD101; test: B. subtilis MIC; conditions: Bacillus subtilis
[9] = biological target: T4, AtPDF1A (Arabidopsis thaliana, UniProt Q9FV53); test: PDF inhibition assay coupled to formate dehydrogenase (in vitro assay); format: biochemical; conditions: mitochondrial PDF, 25 nM in assay; 10 % dimethyl sulfoxide; (TB) = tight binding
T4 construct: made in house
T4 sequence (Q9FV53 61-269): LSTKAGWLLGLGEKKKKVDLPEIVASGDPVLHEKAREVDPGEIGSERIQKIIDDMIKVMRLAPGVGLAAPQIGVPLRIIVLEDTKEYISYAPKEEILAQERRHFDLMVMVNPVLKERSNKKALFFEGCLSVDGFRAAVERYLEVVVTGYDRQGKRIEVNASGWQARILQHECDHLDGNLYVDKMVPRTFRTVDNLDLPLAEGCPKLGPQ

[10] = tested on: E. coli-JM101Tr; test: E. coli MIC, WT strain; conditions: Escherichia coli, WT strain JM101Tr
[11] = tested on: E. coli-CAG1284; test: E. coli MIC, tolC mutant strain; conditions: Escherichia coli
[12] = nickel-bound enzyme, 20 nM in assay, 10 % dimethyl sulfoxide, (TB) = tight binding, read-out: IC50
[13] = nickel-bound enzyme, 40 nM in assay, 10 % dimethyl sulfoxide, (TB) = tight binding, read-out: IC50
[14] = WT context (strains 168 and MO3482)

Row | Compound | binding constant [1] | IC50 [2, 12] | concentration at which growth inhibition is observed [3] | MIC ([4]; Bacillus subtilis) | MIC ([4]; strain 168 (WT context)) | IC50 [5, 13] | MIC [6] | MIC [7] | MIC [8] | IC50 [9] | IC50 [2] | MIC [10] | MIC [4, 14] | IC50 [5] | MIC [11]
1 | Brc1ccc2[nH]ccc2c1 [5-bromoindole] | in the millimolar range |  |  |  |  |  |  |  |  |  |  |  |  |  | 
2 | O=C(Cc1cn(C(=O)OCc2ccccc2)c2ccc(Br)cc12)NO [Compound 2, 5-bromo-3-hydroxycarbamoylmethyl-indole-1-carboxylic acid benzyl ester] |  | < 27 nM | higher than 50 µM | 20 µg/mL (≈ 49.6 µM) | 20 µg/mL (≈ 49.6 µM) | 26 nM | 6 µg/mL (≈ 14.9 µM) | 16 µg/mL (≈ 39.7 µM) | 12 µg/mL (≈ 29.8 µM) | 14000 nM |  |  |  |  | 
3 | CC(C)(C)OC(=O)NC(CC(=O)NO)Cc1ccccc1 (stereo not shown) [RAS270] |  |  |  | > 300 µg/mL |  |  | 8 µg/mL (≈ 27.2 µM) | > 300 µg/mL | > 300 µg/mL | 83000 nM | 300 nM | > 300 µg/mL | no antibiotic properties | 44 nM | 32 µg/mL (≈ 109 µM)
4 | CC(C)(C)OC(=O)NC(Cc1ccccc1)CN(O)C=O (stereo not shown) [RAS358] |  | 400 nM |  | > 300 µg/mL |  | 50 nM | 9 µg/mL (≈ 30.6 µM) | > 300 µg/mL | > 300 µg/mL | 150000 nM |  |  | no antibiotic properties |  | 
